The test system of one data set is KB cells. Description: PI/Annexin V-FITC apoptosis assay. The class given is cell-based. To be noted: 500 nM, 24 hr. As for the experimental part:
Cell apoptosis effect induced by RNA nanoparticles was evaluated using FITC Annexin V Apoptosis Detection Kit (BD Pharmingen) following manufacturer instructions. Briefly, 5×10^4 KB cells were seeded on a 24-well plate overnight. RNA nanoparticles and free MTX were added into 24-well plate at a final concentration of 500 nM. After a 24 hr incubation at 37° C. in a humidified 5% CO2 environment, cells were trypsinized to single cell suspension, washed with PBS buffer twice, and resuspended in 100 μL 1× Annexin V-FITC binding buffer. Following this 5 μL of Annexin V-FITC and 5 μL of PI were added into each sample and incubated at room temperature for 15 min. The samples were then transferred into flow tubes that contained 200 μL of 1× binding buffer for FACS analysis by FACS Calibur™ flow cytometer within 1 hr. Data were analyzed by FlowJo.

Data set [1] in a line: Water solubility of SN38 after conjugation to RNA (absorbance at 366 nm). The class given is physicochemical. To be noted: absorbance at 366 nm versus concentration 12.5-800 μM. As for the experimental part: Three solutions were prepared, RNA-SN38 in DEPC H2O, SN38 in DEPC H2O, and SN38 in DMSO. The absorbance at 366 nm of these three solutions with different concentrations (12.5-800 μM) were measured by NanoDrop 2000 Spectrophotometer (ThermoFisher). […] The picture of RNA-SN38 and SN38 in DEPC H2O at 800 μM were taken for comparison of clarity and turbidity.

Turning to `CN(Cc1cnc2nc(N)nc(N)c2n1)c1ccc(C(=O)N[C@@H](CCC(=O)O)C(=O)O)cc1` [MTX, Methotrexate], the cells underwent apoptosis with KB cells was 69.4%.

With `CCc1c2c(nc3ccc(O)cc13)-c1cc3c(c(=O)n1C2)COC(=O)[C@]3(O)CC` [SN38, 7-Ethyl-10-hydroxycamptothecin], the solubility in water result in data set [1] is given as “poor water solubility”.

Source of the values: patent US20240165241A1, “TARGETED DELIVERY OF DRUG MOLECULES WITH DRUG LIGANDS CONJUGATED TO RNA NANOPARTICLE MOTION ELEMENTS” (Ohio State Innovation Foundation, priority 2022, published 2024).
